Source: ChEMBL document CHEMBL4765365, “Design, synthesis and antitumour evaluation of pyrrolo[1,2-f]-phenanthridine and dibenzo[f,h]pyrrolo[1,2-b]isoquinoline derivatives” (Eur J Med Chem, 2020)
The source made the active and inactive calls. The rule behind the calls is not given here.

Legend:
CEM-VLB = assay: Cytotoxicity against human CEM-VLB cells assessed as reduction in cell viability incubated for 72 hrs by XTT assay; assay type: functional, cell-based
[1] = Cytotoxicity against human PacaS1 cells assessed as reduction in cell viability incubated for 72 hrs by XTT assay; assay type: functional, cell-based; conditions: PacaS1, 72 h
HCT-116 [2] = assay: Induction of cell cycle arrest in human HCT-116 cells assessed as G2/M phase at 0.375 uM measured at 0 hrs by PI staining based flow cytometry analysis (reference value: 28.9 +/- 1.4 %); assay type: functional
HCT-116 [3] = assay: Induction of cell cycle arrest in human HCT-116 cells assessed as G1 phase at 0.375 uM incubated for 12 hrs by PI staining based flow cytometry analysis (reference value: 53.6 +/- 4.5 %); assay type: functional
HCT-116 [4] = assay: Induction of cell cycle arrest in human HCT-116 cells assessed as G0 phase at 0.375 uM incubated for 24 hrs by PI staining based flow cytometry analysis (reference value: 12.5 +/- 5.4 %); assay type: functional
HCT-116 [5] = assay: Induction of cell cycle arrest in human HCT-116 cells assessed as G0 phase at 0.375 uM incubated for 36 hrs by PI staining based flow cytometry analysis (reference value: 2.5 +/- 0.8 %); assay type: functional
HCT-116 [6] = assay: Induction of cell cycle arrest in human HCT-116 cells assessed as G1 phase at 0.375 uM incubated for 36 hrs by PI staining based flow cytometry analysis (reference value: 57.4 +/- 1.3 %); assay type: functional
HCT-116 [7] = assay: Induction of cell cycle arrest in human HCT-116 cells assessed as G2/M phase at 0.375 uM incubated for 36 hrs by PI staining based flow cytometry analysis (reference value: 23.6 +/- 1 %); assay type: functional
HCT-116 [8] = assay: Induction of cell cycle arrest in human HCT-116 cells assessed as S phase at 0.75 uM measured at 0 hrs by PI staining based flow cytometry analysis (reference value: 12.4 +/- 6.2 %); assay type: functional
HCT-116 [9] = assay: Induction of cell cycle arrest in human HCT-116 cells assessed as G2/M phase at 0.75 uM incubated for 12 hrs by PI staining based flow cytometry analysis (reference value: 21.7 +/- 1.9 %); assay type: functional
HCT-116 [10] = assay: Induction of cell cycle arrest in human HCT-116 cells assessed as G0 phase at 0.75 uM incubated for 24 hrs by PI staining based flow cytometry analysis (reference value: 12.5 +/- 5.4 %); assay type: functional
HCT-116 [11] = assay: Induction of cell cycle arrest in human HCT-116 cells assessed as S phase at 0.75 uM incubated for 24 hrs by PI staining based flow cytometry analysis (reference value: 21.2 +/- 5.4 %); assay type: functional
HCT-116 [12] = assay: Induction of cell cycle arrest in human HCT-116 cells assessed as G2/M phase at 0.75 uM incubated for 24 hrs by PI staining based flow cytometry analysis (reference value: 9.3 +/- 0.8 %); assay type: functional
HCT-116 [13] = assay: Induction of cell cycle arrest in human HCT-116 cells assessed as G0 phase at 0.75 uM incubated for 36 hrs by PI staining based flow cytometry analysis (reference value: 2.5 +/- 0.8 %); assay type: functional
HCT-116 [14] = assay: Induction of cell cycle arrest in human HCT-116 cells assessed as G0 phase at 1.5 uM incubated for 12 hrs by PI staining based flow cytometry analysis (reference value: 2.2 +/- 1.7 %); assay type: functional
HCT-116 [15] = assay: Induction of cell cycle arrest in human HCT-116 cells assessed as G0 phase at 1.5 uM incubated for 36 hrs by PI staining based flow cytometry analysis (reference value: 2.5 +/- 0.8 %); assay type: functional
NCI-H460 [16] = assay: Induction of cell cycle arrest in human NCI-H460 cells assessed as S phase at 0.75 uM measured at 0 hrs by PI staining based flow cytometry analysis (reference value: 12.2 +/- 2.8 %); assay type: functional
NCI-H460 [17] = assay: Induction of cell cycle arrest in human NCI-H460 cells assessed as G2/M phase at 0.75 uM incubated for 12 hrs by PI staining based flow cytometry analysis (reference value: 22.9 +/- 6.8 %); assay type: functional
NCI-H460 [18] = assay: Induction of cell cycle arrest in human NCI-H460 cells assessed as S phase at 0.75 uM incubated for 24 hrs by PI staining based flow cytometry analysis (reference value: 11.7 +/- 6.1 %); assay type: functional
NCI-H460 [19] = assay: Induction of cell cycle arrest in human NCI-H460 cells assessed as G0 phase at 1.5 uM measured at 0 hrs by PI staining based flow cytometry analysis (reference value: 1.3 +/- 0.9 %); assay type: functional
NCI-H460 [20] = assay: Induction of cell cycle arrest in human NCI-H460 cells assessed as G1 phase at 1.5 uM measured at 0 hrs by PI staining based flow cytometry analysis (reference value: 53.4 +/- 4.8 %); assay type: functional
NCI-H460 [21] = assay: Induction of cell cycle arrest in human NCI-H460 cells assessed as S phase at 1.5 uM incubated for 12 hrs by PI staining based flow cytometry analysis (reference value: 11.2 +/- 4.3 %); assay type: functional
NCI-H460 [22] = assay: Induction of cell cycle arrest in human NCI-H460 cells assessed as S phase at 1.5 uM incubated for 36 hrs by PI staining based flow cytometry analysis (reference value: 7.6 +/- 3.9 %); assay type: functional
NCI-H460 [23] = assay: Induction of cell cycle arrest in human NCI-H460 cells assessed as G2/M phase at 1.5 uM incubated for 36 hrs by PI staining based flow cytometry analysis (reference value: 25 +/- 1.2 %); assay type: functional
NCI-H460 [24] = assay: Induction of cell cycle arrest in human NCI-H460 cells assessed as G0 phase at 3 uM measured at 0 hrs by PI staining based flow cytometry analysis (reference value: 1.3 +/- 0.9 %); assay type: functional
NCI-H460 [25] = assay: Induction of cell cycle arrest in human NCI-H460 cells assessed as G1 phase at 3 uM measured at 0 hrs by PI staining based flow cytometry analysis (reference value: 53.4 +/- 4.8 %); assay type: functional
NCI-H460 [26] = assay: Induction of cell cycle arrest in human NCI-H460 cells assessed as G2/M phase at 3 uM incubated for 12 hrs by PI staining based flow cytometry analysis (reference value: 22.9 +/- 6.8 %); assay type: functional
NCI-H460 [27] = assay: Induction of cell cycle arrest in human NCI-H460 cells assessed as G2/M phase at 3 uM incubated for 36 hrs by PI staining based flow cytometry analysis (reference value: 25 +/- 1.2 %); assay type: functional
NCI-H460 [28] = assay: Induction of apoptosis in human NCI-H460 cells assessed as necrotic cells at 3 uM incubated for 48 hrs by annexin V-FITC and PI staining based flow cytometry analysis (reference value: 0.7 %); assay type: functional
NCI-H460 [29] = assay: Induction of apoptosis in human NCI-H460 cells assessed as early apoptotic cells at 6 uM incubated for 48 hrs by annexin V-FITC and PI staining based flow cytometry analysis (reference value: 2 %); assay type: functional
NCI-H460 [30] = assay: Antitumor activity against human NCI-H460 cells xenografted in nude mouse assessed as reduction in tumor size at 30 mg/kg, iv administered for 5 days and repeated cycle for 2 days interval and measured on day 24; assay type: functional; conditions: 576 h, time 24 day, read-out: TGI
dsDNA = assay: Induction of pBR322 DNA interstand crosslink at 1 to 20 uM incubated for 2 hrs by agarose gel electrophoresis assay; conditions: dose 1-20 µM

Activity (dsDNA): Active
SMILES: OCc1cn2c3ccccc3c3ccccc3c2c1CO
IC50 (CEM-VLB): 0.38 µM
IC50 [1]: 1.41 µM
Activity (HCT-116 [2]): 28.8%
Activity (HCT-116 [3]): 51.6%
Activity (HCT-116 [4]): 13.8%
Activity (HCT-116 [5]): 2.8%
Activity (HCT-116 [6]): 59.3%
Activity (HCT-116 [7]): 23.4%
Activity (HCT-116 [8]): 12.6%
Activity (HCT-116 [9]): 23.2%
Activity (HCT-116 [10]): 2.7%
Activity (HCT-116 [11]): 8.9%
Activity (HCT-116 [12]): 25.6%
Activity (HCT-116 [13]): 6.9%
Activity (HCT-116 [14]): 1.9%
Activity (HCT-116 [15]): 18.2%
Activity (NCI-H460 [16]): 12.6%
Activity (NCI-H460 [17]): 23.7%
Activity (NCI-H460 [18]): 11%
Activity (NCI-H460 [19]): 1.4%
Activity (NCI-H460 [20]): 55.5%
Activity (NCI-H460 [21]): 16.3%
Activity (NCI-H460 [22]): 3.5%
Activity (NCI-H460 [23]): 17.5%
Activity (NCI-H460 [24]): 1.3%
Activity (NCI-H460 [25]): 52.1%
Activity (NCI-H460 [26]): 22.8%
Activity (NCI-H460 [27]): 25.6%
Activity (NCI-H460 [28]): 1.6%
Activity (NCI-H460 [29]): 29.2%
inhibition in vivo at 30 mg/kg (NCI-H460 [30]): 66%
